Reference: a compilation of properties of binary mixtures (doi:10.1016/j.molliq.2015.08.019)

Experiment: xn = mol fraction of the nth substance listed
Details: 100 kPa

Structure (SMILES): CN1CCCC1=O + CCCC[n+]1ccn(C)c1.F[B-](F)(F)F
- speed of sound (298.15 K, x1 = 1): 1543.8 m/s
- speed of sound (303.15 K, x1 = 1): 1524.3 m/s
- speed of sound (308.15 K, x1 = 1): 1505 m/s
- speed of sound (313.15 K, x1 = 1): 1485.7 m/s
- speed of sound (318.15 K, x1 = 1): 1466.7 m/s

Structure (SMILES): CCCC[n+]1ccn(C)c1.F[B-](F)(F)F + CN1CCCC1=O
- speed of sound (298.15 K, x2 = 0.4422): 1562.8 m/s
- speed of sound (298.15 K, x2 = 0.5097): 1562 m/s
- speed of sound (298.15 K, x2 = 0.6155): 1561.2 m/s
- speed of sound (298.15 K, x2 = 0.8025): 1559.1 m/s
- speed of sound (298.15 K, x2 = 0.9025): 1554.8 m/s
- speed of sound (303.15 K, x2 = 0.108): 1552.4 m/s
- speed of sound (303.15 K, x2 = 0.2114): 1552.2 m/s
- speed of sound (303.15 K, x2 = 0.3061): 1551.5 m/s
- speed of sound (303.15 K, x2 = 0.4422): 1549.9 m/s
- speed of sound (303.15 K, x2 = 0.5097): 1548.1 m/s
- speed of sound (303.15 K, x2 = 0.7054): 1544.1 m/s
- speed of sound (303.15 K, x2 = 0.9025): 1536.3 m/s
- speed of sound (308.15 K, x2 = 0.2114): 1539.8 m/s
- speed of sound (308.15 K, x2 = 0.4422): 1536.6 m/s
- speed of sound (308.15 K, x2 = 0.5097): 1534.6 m/s
- speed of sound (308.15 K, x2 = 0.6155): 1531.5 m/s
- speed of sound (308.15 K, x2 = 0.8025): 1524.7 m/s
- speed of sound (308.15 K, x2 = 0.9025): 1518 m/s
- speed of sound (313.15 K, x2 = 0.108): 1528.3 m/s
- speed of sound (313.15 K, x2 = 0.4422): 1522.7 m/s
- speed of sound (313.15 K, x2 = 0.5097): 1520.8 m/s
- speed of sound (313.15 K, x2 = 0.8025): 1507 m/s
- speed of sound (318.15 K, x2 = 0.108): 1516.4 m/s
- speed of sound (318.15 K, x2 = 0.3061): 1512.8 m/s
- speed of sound (318.15 K, x2 = 0.4422): 1510.1 m/s
- speed of sound (318.15 K, x2 = 0.5097): 1506.8 m/s
- speed of sound (318.15 K, x2 = 0.6155): 1501.7 m/s
- speed of sound (318.15 K, x2 = 0.7054): 1496.4 m/s
- speed of sound (318.15 K, x2 = 0.8025): 1490.4 m/s
- speed of sound (318.15 K, x2 = 0.9025): 1482.5 m/s
- speed of sound (323.15 K, x2 = 0.2114): 1502.8 m/s
- speed of sound (323.15 K, x2 = 0.3061): 1499.9 m/s
- speed of sound (323.15 K, x2 = 0.4422): 1496.7 m/s
- speed of sound (323.15 K, x2 = 0.5097): 1492.4 m/s
- speed of sound (323.15 K, x2 = 0.6155): 1486.5 m/s
- speed of sound (323.15 K, x2 = 0.7054): 1480.7 m/s
- speed of sound (323.15 K, x2 = 0.8025): 1473.2 m/s
- speed of sound (323.15 K, x2 = 0.9025): 1464.1 m/s
